Measured values taken from patent publication US6518260B1, “(α-aminophosphino) peptide derivatives, method for making same and therapeutic applications thereof” (Institut National de la Sante et de la Recherche Medicale …, priority 1996, dated 2003).

melting point [°C]	SMILES
240	Br.NC(Cc1ccccc1)P(=O)(O)CC(Cc1ccccc1)C(=O)N[C@H](CC(=O)O)Cc1ccccc1 (stereo partly shown)
205	CC(N)P(=O)(O)CC(Cc1ccc(-c2ccccc2)cc1)C(=O)N[C@@H](C)C(=O)OCc1ccccc1.O=C(O)C(F)(F)F (stereo partly shown)
192	NC(Cc1ccccc1)P(=O)(CC(Cc1ccccc1)C(=O)N[C@@H](Cc1ccccc1)C(=O)OCc1ccccc1)OCc1ccccc1.O=CO (stereo partly shown)
210	NC(Cc1ccccc1)P(=O)(O)CC(Cc1ccccc1)C(=O)N[C@@H](Cc1ccccc1)C(=O)OCc1ccccc1.O=C(O)C(F)(F)F (stereo partly shown)
